Test results from publication PMC7046635, “A combined experimental and modelling approach for the Weimberg pathway optimisation” (Nature Communications, 2020).

Assays:
[1] = biological target: T1, D-xylose dehydrogenase (XDH) (Caulobacter vibrioides, UniProt B8H1Z0); experiment: biochemical; parameters: product inhibition constants from fits of rate equations to initial rate kinetics of purified enzyme; conditions: read-out: K estimate (mM), inhibition
T1 construct: gene xylB; full-length gene in pET vector, N-terminal His tag, E. coli expression, Ni-TED and size exclusion
T1 sequence (B8H1Z0 1-248): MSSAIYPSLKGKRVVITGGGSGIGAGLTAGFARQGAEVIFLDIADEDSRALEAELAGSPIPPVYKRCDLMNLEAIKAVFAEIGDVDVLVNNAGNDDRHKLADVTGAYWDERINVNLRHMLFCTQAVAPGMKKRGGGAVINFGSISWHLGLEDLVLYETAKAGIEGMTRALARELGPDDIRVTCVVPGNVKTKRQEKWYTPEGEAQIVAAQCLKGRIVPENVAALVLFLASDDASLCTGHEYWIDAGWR

[2] = biological target: T2, D-xylonate dehydratase (XAD) (Caulobacter vibrioides, UniProt Q9A9Z2); experiment: discontinuous thiobarbituric acid assay; assay type: biochemical; conditions: 100 mM HEPES/NaOH pH 7.5, 37 °C, enzyme stored with 17 µmol MnCl2 per mg
T2 construct: gene xylD; full-length gene in pET vector, N-terminal His tag, E. coli expression, Ni-TED and size exclusion, stored with MnCl2
T2 sequence (Q9A9Z2 whole entry): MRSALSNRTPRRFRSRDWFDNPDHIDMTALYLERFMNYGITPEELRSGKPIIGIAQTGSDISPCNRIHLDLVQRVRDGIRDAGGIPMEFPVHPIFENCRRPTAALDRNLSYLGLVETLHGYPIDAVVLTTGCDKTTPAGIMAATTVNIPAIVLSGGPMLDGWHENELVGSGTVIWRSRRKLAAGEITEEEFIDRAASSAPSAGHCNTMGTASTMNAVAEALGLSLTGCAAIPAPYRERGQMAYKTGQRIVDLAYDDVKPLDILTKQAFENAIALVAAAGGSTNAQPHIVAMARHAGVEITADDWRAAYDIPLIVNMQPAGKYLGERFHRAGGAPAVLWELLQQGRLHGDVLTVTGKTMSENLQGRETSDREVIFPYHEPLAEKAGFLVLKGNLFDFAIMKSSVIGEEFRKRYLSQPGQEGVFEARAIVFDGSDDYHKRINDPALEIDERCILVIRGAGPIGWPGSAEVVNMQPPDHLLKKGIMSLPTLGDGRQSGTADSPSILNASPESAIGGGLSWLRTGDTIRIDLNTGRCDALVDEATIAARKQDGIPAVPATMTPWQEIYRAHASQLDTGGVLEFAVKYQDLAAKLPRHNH

[3] = biological target: T3, α-Ketoglutarate semialdehyde dehydrogenase (KGSADH) (Caulobacter vibrioides, UniProt A0A0H3C801); experiment: biochemical; parameters: product inhibition constants from fits of rate equations to initial rate kinetics of purified enzyme; conditions: read-out: K estimate (mM), inhibition
T3 construct: gene xylA; full-length gene in pET vector, N-terminal His tag, E. coli expression, Ni-TED and size exclusion
T3 sequence (A0A0H3C801 1-478): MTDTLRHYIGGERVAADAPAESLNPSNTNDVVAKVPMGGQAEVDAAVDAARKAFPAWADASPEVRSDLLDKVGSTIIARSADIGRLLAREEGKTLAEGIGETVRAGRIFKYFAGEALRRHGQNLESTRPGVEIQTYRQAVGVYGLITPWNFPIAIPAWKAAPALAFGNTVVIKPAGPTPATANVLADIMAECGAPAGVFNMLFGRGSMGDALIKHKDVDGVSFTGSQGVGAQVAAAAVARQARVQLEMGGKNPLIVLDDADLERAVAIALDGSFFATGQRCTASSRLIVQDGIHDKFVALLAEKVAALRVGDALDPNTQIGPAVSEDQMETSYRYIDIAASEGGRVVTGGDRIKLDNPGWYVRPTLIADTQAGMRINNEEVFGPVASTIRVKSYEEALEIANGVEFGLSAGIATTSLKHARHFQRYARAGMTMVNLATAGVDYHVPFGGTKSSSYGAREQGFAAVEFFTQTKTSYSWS
Description: (§1) All reactions completed the substrate conversion in roughly 90 min, which is in agreement with model simulations that include product inhibition (Fig. 2c). However, a much slower conversion was observed than predicted, based on initial rate kinetics excluding product inhibition (Supplementary Note 1 and Supplementary Figs. 9–11). […] For XLA and KDXD, the inhibition constants for D-xylonate and KGSA, respectively, had to be fitted based on the conversion data, as these enzymes are analysed in coupled enzyme assays. The progress curves after single enzyme additions and the required model adjustments are shown and discussed in Supplementary Note 1, all enzyme kinetic parameters are shown in Supplementary Tables 3–7. […] As a final step in model construction, the one-pot cascade model was established. The results of the sequential pathway reconstruction were used to define the ‘reference state’ for the one-pot cascade conversion of D-xylose to α-[compound left out] (Supplementary Note 1). For this, we added the five enzymes together, using amounts close to those used in the sequential experiment (2.5 μg ml^−1 XDH, 0.8 μg ml^−1 XLA, 8.67 μg ml^−1 XAD, 0.5 μg ml^−1 KDXD and 10 μg ml^−1 KGSADH). The conversion of 5 mM D-xylose via the pathway intermediates to α-[compound left out] was followed using NMR (Fig. 3a). The model based on the isolated reaction kinetics predicted the first part of the pathway accurately, i.e., D-xylose oxidation, lactone cleavage and D-xylonate dehydration. […] S2 enzyme (Supplementary Table 5), measured using an off-line colorimetric assay. […] Product inhibition for the individual metabolites and combination of metabolites was determined in initial rate experiments in a linked KGSADH assay (Supplementary Fig. 7), while for α-[compound left out] semialdehyde the binding constant was estimated in a conversion assay (Supplementary Fig. 10b).

[4] = biological target: T4, D-xylonate dehydratase (XAD) (Caulobacter vibrioides, UniProt A0A0H3C6H6); experiment: biochemical; parameters: product inhibition constants from fits of rate equations to initial rate kinetics of purified enzyme; conditions: read-out: K estimate (mM), inhibition
T4 construct: gene xylD; full-length gene in pET vector, N-terminal His tag, E. coli expression
T4 sequence (A0A0H3C6H6 1-591): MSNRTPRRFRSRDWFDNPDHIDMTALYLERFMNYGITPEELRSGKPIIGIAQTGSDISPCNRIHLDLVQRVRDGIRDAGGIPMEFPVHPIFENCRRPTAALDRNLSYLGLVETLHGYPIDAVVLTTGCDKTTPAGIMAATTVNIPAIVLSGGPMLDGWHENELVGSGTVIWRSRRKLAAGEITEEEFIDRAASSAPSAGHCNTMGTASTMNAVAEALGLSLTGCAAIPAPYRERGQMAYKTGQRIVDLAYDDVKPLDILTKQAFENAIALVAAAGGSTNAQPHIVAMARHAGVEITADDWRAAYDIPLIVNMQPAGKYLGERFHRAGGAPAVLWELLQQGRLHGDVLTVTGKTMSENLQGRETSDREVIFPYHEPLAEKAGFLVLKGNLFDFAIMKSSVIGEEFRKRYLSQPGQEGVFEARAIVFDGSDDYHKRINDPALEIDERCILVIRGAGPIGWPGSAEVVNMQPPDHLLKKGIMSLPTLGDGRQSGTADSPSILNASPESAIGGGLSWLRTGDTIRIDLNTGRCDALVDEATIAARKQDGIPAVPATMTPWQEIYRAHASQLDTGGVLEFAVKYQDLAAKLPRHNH
Description: as §1

SMILES	Ki [1] [mM]	Ki [3] [mM]	also measured
O=C1O[C@H](CO)[C@H](O)[C@H]1O [D-xylono-1,4-lactone]	0.54	–	–
O=C(O)[C@H](O)[C@@H](O)[C@H](O)CO [D-xylonate]	–	–	Km [2]: 790 µM
O=C(O)C(=O)C[C@H](O)CO [2-keto-3-deoxy-D-xylonate]	–	0.021	Ki [4]: 0.86 mM

Continued, in another order:

Ki [1] [mM]	Ki [3] [mM]	SMILES	also measured
0.03	–	NC(=O)C1=CN([C@@H]2O[C@H](COP(=O)(O)OP(=O)(O)OC[C@H]3O[C@@H](n4cnc5c(N)ncnc54)[C@H](O)[C@@H]3O)[C@@H](O)[C@H]2O)C=CC1 [NADH]	–
–	0.28	O=C(O)CCC(=O)C(=O)O [KG]	–
